SMILES strings stand for the structures.

The source of these data is patent publication US10265294B2, “Compositions and methods for treating epithelial cancer” (YALE UNIVERSITY, priority 2016, dated 2019).

The conditions of data set [1]: mouse, in vivo. An excerpt: (§1) The Yale University Institutional Animal Care and Use Committee approved all in vivo studies described. Intra-peritoneal tumors were established in athymic nude mice using 4×10^6 mCherry+OCSC1-F2 ovarian cancer cells (Craveiro, et al., 2013, Cancer Med. 2:751-762). Injection of cancer cells is designated as day 0 and treatment commenced between day 3-5. Establishment of i.p. tumors was confirmed by live imaging (In-Vivo FX PRO, Bruker Corp., Billerica, Mass.) prior to treatment. TRX-E-002-1 was prepared in 20% Captisol or Dexsolve and administered daily at 50 mg/kg or 100 mg/kg. Paclitaxel was given at 12 mg/kg q3d and Cisplatin at 5 mg/kg weekly. All treatments were given i.p. Tumor growth was monitored q3d by live imaging and response to treatment was assessed using ROI area.
To determine activity against primary disease as well as to determine the maximum tolerated dose (MTD), a dose response study was performed. […] Animals however recovered from the distension upon cessation of treatment. […] Thus, the MTD was established at daily 100 mg/kg i.p. and this dose was employed for the succeeding studies employing combination treatment.

For another data set, the system named is ERK. Put plainly: Phosphokinase array / Western blot for phosphorylated ERK in OCSCs. Format: cell-based, human. Conditions: compared to controls; from 2 h up to 24 h post-treatment. As for the experimental part:
(§2) SDS-PAGE and Western blots were performed using 20 μg of total protein lysate as described in Kamsteeg, et al., 2003, Oncogene 22:2611-2620. Antibodies used were: mouse anti-phospho ERK (Santa Cruz Biotechnology, Inc., Dallas, Tex.); rabbit anti-phospho c-Jun, rabbit anti c-Jun, rabbit anti-ERK, rabbit anti-cleaved caspase 3 all from Cell Signaling Technology, Danvers, Mass.; and mouse anti-GAPDH (Sigma-Aldrich).
(§3) In order to elucidate the early pathways responsible for the sustained cytotoxic effect observed with TRX-E-002-1, a phosphokinase array was performed. The phosphokinase array detected relative phosphorylation levels of 43 different kinases involved in major signal transduction pathways.
(§4) The western blot results also validated the decrease in p-ERK in cells treated with TRX-E-002-1. […] The effect on the phosphorylation status of the kinases (upregulation of p-cJun and downregulation of p-ERK) was observed as early as 2 h post-treatment and maintained up to 24 h (FIG. 4A). The phosphorylation levels of c-Jun and ERK correlate with the differential ability of the two doses of TRX-E-002-1 to induce a sustained cytotoxic effect. […] This correlates with the ability of this dose of TRX-E-002-1 to maintain the upregulation of p-cJun and downregulation of p-ERK even when the compound is removed (FIG. 4B). […]
Background: A western blot detects proteins with antibodies after separation by electrophoresis.

The test system of the next data set is c-Jun. Put plainly: Phosphokinase array / Western blot for phosphorylated and total c-Jun in OCSCs. The class given is cell-based, human. As to the method:
as §2, §3, §4

The test system of data set [2] is i.p. tumors of mCherry+OCSC1-F2 ovarian cancer cells. Description: Recurrent disease xenograft, maintenance treatment after Paclitaxel. Format: in vivo.
Description: as §1
Although the standard of care for ovarian cancer patients (platinum plus taxane) is effective initially, most patients develop recurrent disease. Recurrence is the major cause of mortality in ovarian cancer patients, and thus approaches that can prevent recurrence are critical to improve patient survival. As described elsewhere herein, a unique advantage of the xenograft model is the recapitulation of recurrent disease that is typically observed in patients with ovarian cancer. […] Upon recurrence, tumors acquire resistance and become unresponsive to a second-round of Paclitaxel regimen, as observed in ovarian cancer patients. Thus, the model allows one to assess the value of novel compounds in preventing recurrence when given as maintenance treatment.
Thus mice were given Paclitaxel as initial treatment. […] After the 4th dose of Paclitaxel mice were re-randomized into the different maintenance groups. Here the maintenance protocol consisted of continued treatment with Paclitaxel, or maintenance with TRX-E-002-1 (100 mg/kg), or maintenance with Vehicle control.

Data set [3] relates to OCC2 (CD44-/MyD88- ovarian cancer cells). Put plainly: IC50 against chemosensitive ovarian cancer cells OCC2. The class given is cell-based, human. Conditions: read-out: IC50 (percentage of viable cells). As to the method:
CD44+/MyD88+ ovarian cancer stem cell clones (OCSC1 and OCSC2) and CD44−/MyD88− ovarian cancer cells (OCC1 and OCC2) were isolated from either tumor tissue or ascites obtained from patients diagnosed with stage III/IV serous ovarian cancer and propagated (Alvero, et al., 2009, Cell Cycle 8:158-166; Chefetz, et al., 2013, Cell Cycle 12:511-521). The epithelial nature of the isolated cells was determined by immunostaining for Ck18. Purity of the cultures based on CD44 expression by flow cytometry and chemoresistance were routinely tested. […]
Effect of each compound on cell morphology, growth, and viability was assessed using a kinetic live cell imaging system (Incucyte, Essen Bioscience). Proliferation was calculated as previously described (Alvero, et al., 2011, Mol. Cancer Ther. 10:1385-1393) using metrics from either confluence or fluorescent count from nuclear-restricted RFP or GFP. Cell death was quantified; similarly CELLTOX® Green Cytotoxicity Assay (Promega, Madison, Wis.). IC50 was calculated as described using GraphPad Prism (GraphPad Software Inc., LaJolla, Calif.).
Once the efficacy of TRX-E-002-1 against chemoresistant OCSC was established, its activity against two clones of chemosensitive ovarian cancer cells (OCC1 and OCC2) was determined.

A word on the IC50: it is the concentration that gives 50% inhibition. For the molecule `COc1cc(C2COc3c(ccc(O)c3C)C2c2ccc(O)cc2)cc(OC)c1O` (single isomer, unassigned) [TRX-E-002-1], the “toxicity at high concentrations in animal studies” value in data set [1] is recorded as “evidence of some potential toxicity”. In addition, the “maximum tolerated dose (MTD)” value in data set [1] (ip) turned out to be 100 mg/kg. Besides, in the data set with ERK, the “levels of phosphorylated-ERK (p-ERK)” value is on record as “lower levels”. Further, the “total c-Jun” value in the data set with c-Jun (Western blot time course) is given as “time-dependent increase”. Moreover, the “levels of phosphorylated c-Jun (p-c-Jun)” value in the data set on c-Jun (compared to controls, from 2 h up to 24 h post-treatment) is reported as “higher levels”. The “tolerability of the maintenance schedule” value in data set [2] (TRX-E-002-1 100 mg/kg daily i.p. maintenance) is on record as “no signs of disease or morbidity requiring euthanasia”. In data set [2] (after 4th dose of Paclitaxel, TRX-E-002-1 100 mg/kg daily i.p. or continued Paclitaxel), the “tumor progression during maintenance treatment” value is reported as “effectively retarded tumor proliferation”. The “tumor burden (ROI area) versus group maintained with Paclitaxel” value in data set [2] (by day 35, TRX-E-002-1 100 mg/kg maintenance) is reported as “significantly less”. Also, in data set [2] (maintenance groups), the “gross examination of residual disease” value was “microscopic metastasis” and the “tumor weights at end point compared to control” value is given as “significantly reduced”. Further, the IC50 in data set [3] was found to be 27 nM.
